The record followed here is patent US20240360178A1, “MACROCYCLIC IMMUNOMODULATORS” (Bristol-Myers Squibb Company, priority 2021, published 2024).

Positions of bridges follow the written chain, without caps; N, C: chain ends. Non-standard residues stand in square brackets, D forms with d. Residues, ends and D or L forms follow the SMILES beside them. *: point of attachment. Phe(4-COOH) = N[C@@H](Cc1ccc(C(=O)O)cc1)C(=O)O; Bip = N[C@@H](Cc1ccc(-c2ccccc2)cc1)C(=O)O; Phe(3-Me) = Cc1cccc(C[C@H](N)C(=O)O)c1; Val(3-OH) = CC(C)(O)[C@H](N)C(=O)O; NMeF = CN[C@@H](Cc1ccccc1)C(=O)O; 4Pal = N[C@@H](Cc1ccncc1)C(=O)O; Cha = N[C@@H](CC1CCCCC1)C(=O)O; Cit = NC(=O)NCCC[C@H](N)C(=O)O; NMeS = CN[C@@H](CO)C(=O)O; dPip = O=C(O)[C@H]1CCCCN1; Carboxymethyl = O=C(O)C*; NMeA = CN[C@@H](C)C(=O)O; Orn = NCCC[C@H](N)C(=O)O; Dab = NCC[C@H](N)C(=O)O; Sar = CNCC(=O)O

The target in this experiment is T1, human PD-1 (Jurkat-PD-1 cells) / PE-labeled human PD-L1-Ig (Homo sapiens, UniProt Q15116).
T1 construct: expressed in transfected cells; host or cells: Jurkat cell line over-expressing human PD-1
T1 sequence (Q15116 25-288): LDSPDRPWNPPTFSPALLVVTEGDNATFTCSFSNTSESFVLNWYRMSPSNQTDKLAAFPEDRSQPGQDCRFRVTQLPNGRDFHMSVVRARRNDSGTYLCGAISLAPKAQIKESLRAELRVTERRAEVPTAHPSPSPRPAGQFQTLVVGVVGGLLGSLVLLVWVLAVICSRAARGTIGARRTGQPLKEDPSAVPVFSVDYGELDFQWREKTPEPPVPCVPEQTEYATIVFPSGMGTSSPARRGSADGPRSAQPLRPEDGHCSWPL
The experiment can be described thus: Jurkat-PD-1 Cell Binding High-Content Screening Assay (CBA); Jurkat hPD1-PDL1 assay. The settings on record: Jurkat cell line over-expressing human PD-1; PE-labeled PD-L1-Ig 20 nM final; compound incubated 2 hours at 37° C.; read-out: Jurkat HPD1-PDL1 IC50. The procedure:
The ability of the compounds of formula (I) to bind to PD-1 was investigated using a Jurkat-PD-1 Cell Binding High-Content Screening Assay.
Jurkat-PD-1 Cell Binding High-Content Screening Assay (CBA)
Phycoerythrin (PE) was covalently linked to the Ig epitope tag of human PD-L1-Ig and fluorescently-labeled PD-L1-Ig was used for binding studies with a Jurkat cell line over-expressing human PD-1 (Jurkat-PD-1). Briefly, 8×10^3 Jurkat-hPD-1 cells were seeded into 384 well plates in 20 μL of DMEM supplemented with 10% fetal calf serum. 100 nL of compound was added to cells followed by incubation at 37° C. for 2 hours. Then, 5 μL of PE-labeled PD-L1-Ig (20 nM final), diluted in DMEM supplemented with 10% fetal calf serum. […] Data was collected and processed using a Cell Insight NXT High Content Imager and associated software.

Turning to `CC(C)C[C@@H]1NC(=O)[C@H](Cc2c[nH]c3ccccc23)NC(=O)[C@H](CC(=O)O)NC(=O)[C@H](Cc2ccc(OCC(=O)O)cc2)NC(=O)[C@H](Cc2ccccc2)NC(=O)CSC[C@@H](C(=O)NCC(N)=O)NC(=O)[C@H](CO)NC(=O)[C@H](C(C)C)NC(=O)[C@H](CC(C)C)NC(=O)[C@H](CC(N)=O)NC(=O)CN(C)C(=O)[C@H](C)N(C)C(=O)[C@H](C(C)C)NC(=O)[C@H](Cc2ccc(-c3ccccc3)cc2)NC1=O` [Example 1030] ({CH2CO}-FY(Carboxymethyl)DWL[Bip]V[NMeA][Sar]NLVSCG-NH2; thioether N-14), the IC50 – broadly, the concentration that gives 50% inhibition – worked out at 60 nM.
Next, `CC(C)C[C@@H]1NC(=O)[C@H](CCN)NC(=O)[C@H](Cc2ccccc2)N(C)C(=O)[C@H](C)N(C)C(=O)[C@H](CCCNC(=N)N)NC(=O)[C@H](Cc2ccc(-c3ccccc3)cc2)NC(=O)[C@H](C(C)C)NC(=O)[C@H](Cc2c[nH]c3ccccc23)NC(=O)[C@H](CC(=O)O)NC(=O)[C@H](Cc2ccc(O)cc2)NC(=O)[C@H](Cc2cnc[nH]2)NC(=O)CSC[C@@H](C(=O)N[C@@H](C)C(N)=O)NC(=O)[C@H]([C@@H](C)O)NC(=O)[C@H](C(C)C)NC1=O` [Example 1321] ({CH2CO}-HYDWV[Bip]R[NMeA][NMeF][Dab]LVTCA-NH2; thioether N-14): 110 nM.
As for `CC(C)C[C@@H]1NC(=O)[C@H](Cc2c[nH]c3ccccc23)NC(=O)[C@H](CC(=O)O)NC(=O)[C@H](Cc2ccc(O)cc2)NC(=O)[C@H](Cc2ccccc2)NC(=O)CSC[C@@H](C(=O)N[C@@H](CCCCN)C(N)=O)NC(=O)[C@H](CO)NC(=O)[C@H](C(C)C)NC(=O)[C@H](CC(C)C)NC(=O)[C@H](CC(N)=O)NC(=O)CN(C)C(=O)[C@H](C)N(C)C(=O)[C@H](C(C)C)NC(=O)[C@H](Cc2ccc(-c3ccccc3)cc2)NC1=O` [Example 1253] ({CH2CO}-FYDWL[Bip]V[NMeA][Sar]NLVSCK-NH2; thioether N-14), the IC50 was determined as 710 nM.
The result for `CC(C)C[C@@H]1NC(=O)[C@H](CCCNC(=N)N)NC(=O)[C@H](Cc2ccccc2)N(C)C(=O)[C@H](C)N(C)C(=O)[C@H](CCCNC(=N)N)NC(=O)[C@H](Cc2ccc(-c3ccccc3)cc2)NC(=O)[C@H](C(C)C)NC(=O)[C@H](Cc2c[nH]c3ccccc23)NC(=O)[C@H](CC(=O)O)NC(=O)[C@H](Cc2ccc(O)cc2)NC(=O)[C@H](CC(N)=O)NC(=O)CSC[C@@H](C(=O)N[C@@H](C)C(N)=O)NC(=O)[C@H](CCCN)NC(=O)[C@H](C(C)C)NC1=O` [Example 1373] ({CH2CO}-NYDWV[Bip]R[NMeA][NMeF]RLV[Orn]CA-NH2; thioether N-14) reads 180 nM.
For `CC(C)C[C@@H]1NC(=O)CSC[C@@H](C(=O)NCC(N)=O)NC(=O)[C@H](CO)NC(=O)[C@H](C(C)C)NC(=O)[C@H](CC(C)C)NC(=O)[C@H](CCCNC(=N)N)NC(=O)[C@H](Cc2ccccc2)N(C)C(=O)[C@H](C)N(C)C(=O)[C@H](CCCNC(=N)N)NC(=O)[C@H](Cc2ccc(-c3ccccc3)cc2)NC(=O)[C@H](C(C)C)NC(=O)[C@H](Cc2c[nH]c3ccccc23)NC(=O)[C@H](CC(=O)O)NC(=O)[C@H](Cc2ccc(O)cc2)NC1=O` [Example 1077] ({CH2CO}-LYDWV[Bip]R[NMeA][NMeF]RLVSCG-NH2; thioether N-14), the IC50 amounted to 210 nM.
On to `CC(C)C[C@@H]1NC(=O)[C@H](CCCNC(=N)N)NC(=O)[C@H](Cc2ccccc2)N(C)C(=O)[C@H](C)N(C)C(=O)[C@H](CCCNC(=N)N)NC(=O)[C@H](Cc2ccc(-c3ccccc3)cc2)NC(=O)[C@H](C(C)C)NC(=O)[C@H](Cc2c[nH]c3ccccc23)NC(=O)[C@H](CC(=O)O)NC(=O)[C@H](Cc2ccc(O)cc2)NC(=O)[C@H](CCC(=O)O)NC(=O)CSC[C@@H](C(=O)NCC(N)=O)NC(=O)[C@H](CO)NC(=O)[C@H](C(C)C)NC1=O` [Example 1210] ({CH2CO}-EYDWV[Bip]R[NMeA][NMeF]RLVSCG-NH2; thioether N-14), for which the IC50 came to 600 nM.
`CC(C)C[C@@H]1NC(=O)[C@H](Cc2c[nH]c3ccccc23)NC(=O)[C@H](CC(=O)O)NC(=O)[C@H](Cc2ccc(O)cc2)NC(=O)[C@H](Cc2ccccc2)NC(=O)CSC[C@@H](C(=O)NCC(N)=O)NC(=O)[C@H](CO)NC(=O)[C@H](C(C)C)NC(=O)[C@H](CC(C)C)NC(=O)[C@H](CC(N)=O)NC(=O)[C@H]2CCCN2C(=O)[C@H](C)N(C)C(=O)[C@H](C(C)C)NC(=O)[C@H](Cc2ccc(-c3ccccc3)cc2)NC1=O` [Example 1035] ({CH2CO}-FYDWL[Bip]V[NMeA][dP]NLVSCG-NH2; thioether N-14): the IC50 was 60 nM.
Next, `CC(C)C[C@@H]1NC(=O)[C@H](Cc2c[nH]c3ccccc23)NC(=O)[C@H](CC(=O)O)NC(=O)[C@H](Cc2ccc(C(=O)O)cc2)NC(=O)[C@H](Cc2ccncc2)NC(=O)CSC[C@@H](C(=O)N[C@@H](CCN)C(N)=O)NC(=O)[C@H](CO)NC(=O)[C@H](C(C)(C)O)NC(=O)[C@H](CC2CCCCC2)NC(=O)[C@H](CCN)NC(=O)[C@H]2CCCCN2C(=O)[C@H]2CCCN2C(=O)[C@H](C(C)C)NC(=O)[C@H](Cc2ccc(-c3ccccc3)cc2)NC1=O` [Example 1189] ({CH2CO}-[4Pal][Phe(4-COOH)]DWL[Bip]V[dP][dPip][Dab][Cha][Val(3-OH)]SC[Dab]-NH2; thioether N-14): 70 nM.
In the case of `Cc1cccc(C[C@@H]2NC(=O)[C@H](CC(=O)O)NC(=O)[C@H](Cc3ccc(OCC(=O)O)cc3)NC(=O)[C@H](Cc3ccncc3)NC(=O)CSC[C@@H](C(=O)N[C@@H](CCN)C(N)=O)NC(=O)[C@H](CO)NC(=O)[C@H](C(C)(C)O)NC(=O)[C@H](CC3CCCCC3)NC(=O)[C@H](CCN)NC(=O)[C@H]3CCCN3C(=O)[C@H](C)N(C)C(=O)[C@H](CCCNC(N)=O)NC(=O)[C@H](Cc3ccc(-c4ccccc4)cc3)NC(=O)[C@H](Cc3ccc(OCC(=O)O)cc3)NC2=O)c1` [Example 1180] ({CH2CO}-[4Pal]Y(Carboxymethyl)D[Phe(3-Me)]Y(Carboxymethyl)[Bip][Cit][NMeA][dP][Dab][Cha][Val(3-OH)]SC[Dab]-NH2; thioether N-14), the IC50 came out at 20 nM.
On to `CC(C)C[C@@H]1NC(=O)[C@H](CC(N)=O)NC(=O)CN(C)C(=O)[C@H](C)N(C)C(=O)[C@H](C(C)C)NC(=O)[C@H](Cc2ccc(-c3ccccc3)cc2)NC(=O)[C@H](C(C)C)NC(=O)[C@H](Cc2c[nH]c3ccccc23)NC(=O)[C@H](CC(=O)O)NC(=O)[C@H](Cc2ccc(O)cc2)NC(=O)[C@H](Cc2ccccc2)NC(=O)CSC[C@@H](C(=O)NCC(N)=O)NC(=O)[C@H](CO)NC(=O)[C@H](C(C)C)NC1=O` [Example 1202] ({CH2CO}-FYDWV[Bip]V[NMeA][Sar]NLVSCG-NH2; thioether N-14), for which the IC50 was 80 nM.
The result for `CC(C)C[C@@H]1NC(=O)[C@H](CCCNC(=N)N)NC(=O)[C@H](Cc2ccccc2)N(C)C(=O)[C@H](C)N(C)C(=O)[C@H](CCCNC(=N)N)NC(=O)[C@H](Cc2ccc(-c3ccccc3)cc2)NC(=O)[C@H](C(C)C)NC(=O)[C@H](Cc2c[nH]c3ccccc23)NC(=O)[C@H](CC(=O)O)NC(=O)[C@H](Cc2ccc(O)cc2)NC(=O)[C@H](CO)NC(=O)CSC[C@@H](C(=O)NCC(N)=O)NC(=O)[C@H](CO)NC(=O)[C@H](C(C)C)NC1=O` [Example 1062] ({CH2CO}-SYDWV[Bip]R[NMeA][NMeF]RLVSCG-NH2; thioether N-14) reads 160 nM; that for `CC(C)C[C@@H]1NC(=O)[C@H](CCCNC(=N)N)NC(=O)[C@H](Cc2ccccc2)N(C)C(=O)[C@H](C)N(C)C(=O)[C@H](CCCNC(=N)N)NC(=O)[C@H](Cc2ccc(-c3ccccc3)cc2)NC(=O)[C@H](C(C)C)NC(=O)[C@H](Cc2c[nH]c3ccccc23)NC(=O)[C@H](CC(=O)O)NC(=O)[C@H](Cc2ccc(O)cc2)NC(=O)[C@H](CC(N)=O)NC(=O)CSC[C@@H](C(=O)NCC(N)=O)NC(=O)[C@H]([C@@H](C)O)NC(=O)[C@H](C(C)C)NC1=O` [Example 1310] ({CH2CO}-NYDWV[Bip]R[NMeA][NMeF]RLVTCG-NH2; thioether N-14), 340 nM; that for `CC(C)C[C@@H]1NC(=O)[C@H](Cc2c[nH]c3ccccc23)NC(=O)[C@H](CC(=O)O)NC(=O)[C@H](Cc2ccc(O)cc2)NC(=O)[C@H](Cc2ccccc2)NC(=O)CSC[C@@H](C(=O)NCC(N)=O)NC(=O)[C@H](CO)NC(=O)[C@H](C(C)C)NC(=O)[C@H](CC(C)C)NC(=O)[C@H](CC(N)=O)NC(=O)[C@H](CO)N(C)C(=O)[C@H](C)N(C)C(=O)[C@H](C(C)C)NC(=O)[C@H](Cc2ccc(-c3ccccc3)cc2)NC1=O` [Example 1084] ({CH2CO}-FYDWL[Bip]V[NMeA][NMeS]NLVSCG-NH2; thioether N-14), 240 nM.
The result for `CC(C)C[C@@H]1NC(=O)[C@H](Cc2c[nH]c3ccccc23)NC(=O)[C@H](CC(=O)O)NC(=O)[C@H](Cc2ccc(O)cc2)NC(=O)[C@H](Cc2ccccc2)NC(=O)CSC[C@@H](C(=O)N[C@@H](C)C(N)=O)NC(=O)[C@H](CO)NC(=O)[C@H](C(C)C)NC(=O)[C@H](CC(C)C)NC(=O)[C@H](CC(N)=O)NC(=O)[C@H]2CCCN2C(=O)[C@H]2CCCN2C(=O)[C@H](C(C)C)NC(=O)[C@H](Cc2ccc(-c3ccccc3)cc2)NC1=O` [Example 1007] ({CH2CO}-FYDWL[Bip]V[dP][dP]NLVSCA-NH2; thioether N-14) reads 150 nM.
